In US10759843B2, “Method and pharmaceutical composition for use in the treatment of cancer” (priority 2012, dated 2020):
“Also recorded” adds a separate entry of the source. No end group written: not given here.

How the values were obtained:
[1] = system: Hepatocellular carcinoma; assay: PCD induction in primary cancer cells; type: cell-based
[2] = system: B cells isolated from CLL patients; assay: PCD (phosphatidylserine exposure, Annexin-V-FITC, flow cytometry) in B cells from CLL patients; type: cell-based, human
Text: (§1) After authorized consent forms fresh blood samples will be collected from CLL patients diagnosed according to classical morphological and immunophenotypic criteria at Pitié-Salpêtrière Hospital (Service d'Hématologie Biologique). Normal B lymphocytes will be obtained from EFS (Etablisement Français du Sang). The Institutional Ethics Committee at Pitie-Salpetriere Hospital approved the present study. Mononuclear cells were purified from blood samples using a standard Ficoll-Hypaque gradient, and B cells were positively or negatively selected by magnetic beads coupled to anti-CD19 monoclonal antibody (positive selection) or to anti-CD16, CD3, and CD14 monoclonal antibodies (negative depletion) (Miltenyi Biotech). No changes were found in the cell death response of positively or negatively selected cells. Purified B-lymphocytes were cultured in complete medium (RPMI 1640 medium supplemented with 10% fetal calf serum, 2 mM L-glutamine, and 100 U/ml penicillin-streptomycin). Unless specified, reagents were from Sigma-Aldrich.
To induce cell death B-lymphocytes were cultured 1 h with the TSP-1 derived peptide 4N1K (300 μM; sequence KRFYVVMWKK, SEQ ID NO:1), the negative control peptide 4NGG (300 μM; sequence KRFYGGMWKK, SEQ ID NO:2), the newly developed peptide PKHB1 (150 μM; sequence (D)K-R-F-Y-[…]-M-W-(D)K) (formula I) or an anti-CD47 mAb (in soluble conditions or in immobilized precoated plates; 5 μg/ml; clone B6H12). Alternatively, B-cells were pre-treated for 30 min before the induction of cell death with the calcium chelator BAPTA-AM (20 μM), the caspase-inhibitor Z-VAD.fmk (50 μM).
(§2) We used Annexin V-FITC (BD Biosciences) for the assessment of phosphatidylserine (PS) exposure. Data analysis was carried out in a FACSCanto II (BD Biosciences) on the total cell population (10,000 cells). Data were analyzed using FlowJo software (TreeStar).

[3] = system: Hairy cell leucemia (HCL); assay: PCD induction in primary cancer cells; type: cell-based
[4] = system: Colon carcinoma; assay: PCD induction in primary cancer cells; type: cell-based
[5] = system: Mantle cell lymphoma; assay: PCD induction in primary cancer cells; type: cell-based
[6] = system: Prostate tumor cells; assay: PCD induction in primary cancer cells; type: cell-based
[7] = system: Follicular lymphoma; assay: PCD induction in primary cancer cells; type: cell-based
[8] = system: Chronic Lymphocytic Leukemia; assay: PCD induction in primary cancer cells; type: cell-based
[9] = system: Lymphoplasmacytic lymphoma; assay: PCD induction in primary cancer cells; type: cell-based
[10] = system: HBL-100; assay: PCD induction in cancer cell lines, Annexin V labeling; type: cell-based; details: HBL-100 (Breast epithelial cells with transformed morphology), 400 μM 4N1K, 1 h
Procedure: as §2

[11] = system: RPMI 8866; assay: as above; type: cell-based; details: RPMI 8866 (B lymphocytic cell line), 400 μM 4N1K, 1 h
Procedure: as §2

[12] = system: MCF-7; assay: as above; type: cell-based; details: MCF-7 (Breast adenocarcinoma), 400 μM 4N1K, 1 h
Procedure: as §2

[13] = system: RAJI; assay: as above; type: cell-based; details: RAJI (Burkitt's lymphoma), 400 μM 4N1K, 1 h
Procedure: as §2

[14] = system: MEC-1; assay: as above; type: cell-based; details: MEC-1 (Chronic Lymphocytic Leukemia), 400 μM 4N1K, 1 h
Procedure: as §2

[15] = system: LNCAP; assay: as above; type: cell-based; details: LNCAP (Prostate cancer), 400 μM 4N1K, 1 h
Procedure: as §2

[16] = system: JM-1; assay: as above; type: cell-based; details: JM-1 (Immunoblastic B cell lymphoma), 400 μM 4N1K, 1 h
Procedure: as §2

[17] = system: HELA; assay: as above; type: cell-based; details: HELA (Cervical cancer), 400 μM 4N1K, 1 h
Procedure: as §2

[18] = system: OV10; assay: as above; type: cell-based; details: OV10 (Ovarian Carcinoma), 400 μM 4N1K, 1 h
Procedure: as §2

[19] = system: RPMI 8226; assay: as above; type: cell-based; details: RPMI 8226 (B lymphocytic cell line), 400 μM 4N1K, 1 h
Procedure: as §2

[20] = system: CEM; assay: as above; type: cell-based; details: CEM (Acute lymphoblastic leukemia), 400 μM 4N1K, 1 h
Procedure: as §2

[21] = system: JURKAT; assay: as above; type: cell-based; details: JURKAT (Acute T cell leukemia), 400 μM 4N1K, 1 h
Procedure: as §2

[22] = system: A549; assay: as above; type: cell-based; details: A549 (Lung carcinoma), 400 μM 4N1K, 1 h
Procedure: as §2

[23] = system: RAMOS; assay: as above; type: cell-based; details: RAMOS (Burkitt's lymphoma), 400 μM 4N1K, 1 h
Procedure: as §2

[24] = system: U937; assay: as above; type: cell-based; details: U937 (Diffuse histiocytic lymphoma), 400 μM 4N1K, 1 h
Procedure: as §2

[25] = system: MDA-MB-231; assay: as above; type: cell-based; details: MDA-MB-231 (Adenocarcinoma), 400 μM 4N1K, 1 h
Procedure: as §2

[26] = system: AU-565; assay: as above; type: cell-based; details: AU-565 (Breast adenocarcinoma), 400 μM 4N1K, 1 h
Procedure: as §2

[27] = system: B cells from CLL patients; assay: Free Ca2+ mobilization, Fura-2 AM, Till photonics; type: cell-based, human; details: Fura-2 AM (FIG. 4)
Procedure: Cells, adhered in Polylysine coated glass-bottom Petri dishes, were loaded with Fura-2 AM (1 μM/30 min/37° C.). Cells were then excited by wavelengths of 340 and 380 nm and fluorescence emission of several cells was simultaneously recorded at 510 nm at a frequency of 1 Hz using a dual excitation fluorometric imaging system (TILL-Photonics) controlled by TILL-Vision software. Signals were computed into relative ratio units of the fluorescence intensity of the different wavelengths (340/380 nm). Individual fluorescence values were then analyzed with Origin software to normalize the fluorescence with the first value according to the equation (F/F0)−1, where ‘F’ is the fluorescence at specific time point and ‘F0’ is the fluorescence at time 0.

[28] = system: Glioma; assay: PCD induction in primary cancer cells; type: cell-based
[29] = system: Ovarian carcinoma; assay: PCD induction in primary cancer cells; type: cell-based
[30] = system: Acute T cell leukemia; assay: PCD induction in primary cancer cells; type: cell-based
[31] = system: Diffuse large B cell lymphoma; assay: PCD induction in primary cancer cells; type: cell-based
[32] = system: Bladder carcinoma; assay: PCD induction in primary cancer cells; type: cell-based
[33] = system: Glioblastoma; assay: PCD induction in primary cancer cells; type: cell-based
[34] = system: Breast carcinoma; assay: PCD induction in primary cancer cells; type: cell-based
[35] = system: normal B-lymphocytes; assay: PCD (Annexin-V-FITC) in normal B-lymphocytes; type: cell-based, human
Text: as §1, with “Sigma-Aldrich. […]” for “Sigma-Aldrich.”
We used Annexin V-FITC (BD Biosciences) for the assessment of phosphatidylserine (PS) exposure. […] Data were analyzed using FlowJo software (TreeStar).

[36] = system: primary cancer cells; assay: PCD induction in primary cancer cells (whole panel of Table 2); type: cell-based; details: primary cancer cells (Table 2)
[37] = system: Marginal B cell lymphoma; assay: PCD induction in primary cancer cells; type: cell-based
[38] = system: cancer cell lines; assay: PCD induction in cancer cell lines (whole panel of Table 1); type: cell-based; details: cancer cell lines (Table 1)
Procedure: as §2

Sequence: KRFYVVMWKK [4N1K, K-R-F-Y-V-V-M-W-K-K]
- Cell death induction via CD47 [1]: + (more than 35% of programmed cell death induction via CD47 receptor)
- difference in PCD response between CLL cells with functional and non-functional TP53 ([2]; 300 μM, 1 h (FIG. 2B)): Not significant difference
- cell death in CLL cells ([2]; 300 μM, 1 h, Annexin-V-FITC, cohort of 14 CLL patients (FIG. 6B)): about 45%
- difference in PCD between CLL cells treated or not with caspase inhibitor ZVAD ([2]; 300 μM, 1 h, z-VAD.fmk 50 μM pre-incubation (FIG. 2A)): Not significant difference
- effect of pre-treatment with calcium chelator BAPTA-AM on peptide-mediated PCD ([2]; BAPTA-AM 20 μM before PCD induction (FIG. 5, FIG. 6D)): abrogates
- PCD induction in CLL primary cells (in words) ([2]; soluble peptide or mAb (FIG. 1)): induces caspase-independent PCD
- Cell death induction via CD47 [3]: + (more than 35% of programmed cell death induction via CD47 receptor)
- Cell death induction via CD47 [4]: + (more than 35% of programmed cell death induction via CD47 receptor)
- Cell death induction via CD47 [5]: + (more than 35% of programmed cell death induction via CD47 receptor)
- Cell death induction via CD47 [6]: + (more than 35% of programmed cell death induction via CD47 receptor)
- Cell death induction via CD47 [7]: + (more than 35% of programmed cell death induction via CD47 receptor)
- Cell death induction via CD47 [8]: + (more than 35% of programmed cell death induction via CD47 receptor)
- Cell death induction via CD47 [9]: + (more than 35% of programmed cell death induction via CD47 receptor)
- Cell death induction via CD47 [10]: + (more than 35% of cell death induction, assessed by Annexin V labeling, after 1 h of stimulation with 400 μM of 4N1K (means of six independent experiments))
- Cell death induction via CD47 [11]: + (more than 35% of cell death induction, assessed by Annexin V labeling, after 1 h of stimulation with 400 μM of 4N1K (means of six independent experiments))
- Cell death induction via CD47 [12]: + (more than 35% of cell death induction, assessed by Annexin V labeling, after 1 h of stimulation with 400 μM of 4N1K (means of six independent experiments))
- Cell death induction via CD47 [13]: + (more than 35% of cell death induction, assessed by Annexin V labeling, after 1 h of stimulation with 400 μM of 4N1K (means of six independent experiments))
- Cell death induction via CD47 [14]: + (more than 35% of cell death induction, assessed by Annexin V labeling, after 1 h of stimulation with 400 μM of 4N1K (means of six independent experiments))
- Cell death induction via CD47 [15]: + (more than 35% of cell death induction, assessed by Annexin V labeling, after 1 h of stimulation with 400 μM of 4N1K (means of six independent experiments))
- Cell death induction via CD47 [16]: + (more than 35% of cell death induction, assessed by Annexin V labeling, after 1 h of stimulation with 400 μM of 4N1K (means of six independent experiments))
- Cell death induction via CD47 [17]: + (more than 35% of cell death induction, assessed by Annexin V labeling, after 1 h of stimulation with 400 μM of 4N1K (means of six independent experiments))
- Cell death induction via CD47 [18]: + (more than 35% of cell death induction, assessed by Annexin V labeling, after 1 h of stimulation with 400 μM of 4N1K (means of six independent experiments))
- Cell death induction via CD47 [19]: + (more than 35% of cell death induction, assessed by Annexin V labeling, after 1 h of stimulation with 400 μM of 4N1K (means of six independent experiments))
- Cell death induction via CD47 [20]: + (more than 35% of cell death induction, assessed by Annexin V labeling, after 1 h of stimulation with 400 μM of 4N1K (means of six independent experiments))
- Cell death induction via CD47 [21]: + (more than 35% of cell death induction, assessed by Annexin V labeling, after 1 h of stimulation with 400 μM of 4N1K (means of six independent experiments))
- Cell death induction via CD47 [22]: + (more than 35% of cell death induction, assessed by Annexin V labeling, after 1 h of stimulation with 400 μM of 4N1K (means of six independent experiments))
- Cell death induction via CD47 [23]: + (more than 35% of cell death induction, assessed by Annexin V labeling, after 1 h of stimulation with 400 μM of 4N1K (means of six independent experiments))
- Cell death induction via CD47 [24]: + (more than 35% of cell death induction, assessed by Annexin V labeling, after 1 h of stimulation with 400 μM of 4N1K (means of six independent experiments))
- Cell death induction via CD47 [25]: + (more than 35% of cell death induction, assessed by Annexin V labeling, after 1 h of stimulation with 400 μM of 4N1K (means of six independent experiments))
- Cell death induction via CD47 [26]: + (more than 35% of cell death induction, assessed by Annexin V labeling, after 1 h of stimulation with 400 μM of 4N1K (means of six independent experiments))
- intracellular free Ca2+ mobilization [27]: does not come back to basal level; also recorded: potent and sustained increase of calcium mobilization
- Cell death induction via CD47 [28]: + (more than 35% of programmed cell death induction via CD47 receptor)
- Cell death induction via CD47 [29]: + (more than 35% of programmed cell death induction via CD47 receptor)
- Cell death induction via CD47 [30]: + (more than 35% of programmed cell death induction via CD47 receptor)
- Cell death induction via CD47 [31]: + (more than 35% of programmed cell death induction via CD47 receptor)
- Cell death induction via CD47 [32]: + (more than 35% of programmed cell death induction via CD47 receptor)
- Cell death induction via CD47 [33]: + (more than 35% of programmed cell death induction via CD47 receptor)
- Cell death induction via CD47 [34]: + (more than 35% of programmed cell death induction via CD47 receptor)
- cytotoxicity in normal B-lymphocytes [35]: not in normal B-lymphocytes
- cell death induction [36]: more than 35%
- Cell death induction via CD47 [37]: + (more than 35% of programmed cell death induction via CD47 receptor)
- cell death induction [38]: more than 35%
